Experimental data published in PubChem BioAssay AID248 (DTP/NCI, 2004).
Several values for one entry are separate records, joined by “and”; a condition that tells them apart may be missing. Equal values may be shown once. Inconclusive results and toxic doses are left out. Cut-off read from the data, not from the text of the source: active = T/C of 150% or more; inactive = T/C below 125%.

Test system: L1210 leukemia ip in BDF1 mice, survival T/C
Assay: NCI In Vivo Anticancer Drug Screen. Data for tumor model L1210 Leukemia (intraperitoneal) in B6D2F1 (BDF1) mice
Details: endpoint: mean survival time, higher = longer survival
Method in brief: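 Tumor cells were implanted, animals were treated, and survival was followed. The result divides the treated measurement by the vehicle-control measurement.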

[1] = dose: 100.0 mg/kg/injection, schedule: Q04DX003 (ip), vehicle: saline
[2] = dose: 200.0 mg/kg/injection, schedule: Q04DX003 (ip), vehicle: saline
[3] = dose: 400.0 mg/kg/injection, schedule: Q04DX003 (ip), vehicle: saline
[4] = dose: 100.0 mg/kg/injection, schedule: Q01DX009 (ip), vehicle: saline with Tween-80
[5] = dose: 200.0 mg/kg/injection, schedule: Q01DX009 (ip), vehicle: saline with Tween-80
[6] = dose: 100.0 mg/kg/injection, schedule: Q01DX009 (ip), vehicle: Klucel (hydroxypropylcellulose) (HPC)
[7] = dose: 200.0 mg/kg/injection, schedule: Q01DX009 (ip), vehicle: Klucel (hydroxypropylcellulose) (HPC)
[8] = dose: 200.0 mg/kg/injection, schedule: Q04DX003 (ip), vehicle: Klucel (hydroxypropylcellulose) (HPC)
[9] = dose: 400.0 mg/kg/injection, schedule: Q01DX009 (ip), vehicle: Klucel (hydroxypropylcellulose) (HPC)
[10] = dose: 100.0 mg/kg/injection, schedule: Q01DX001 (ip), vehicle: saline

Measured: T/C

COc1cccc2c1C(=O)c1c(O)c3c(c(O)c1C2=O)C[C@@](O)(/C(C)=N\NC(=O)CO)C[C@@H]3OC1CC(N)C(O)C(C)O1 (some centres not stated)
inactive: dose: 0.88 mg/kg/injection, schedule: Q04DX003 (ip), vehicle: saline 119 % of control | dose: 1.33 mg/kg/injection, schedule: Q04DX003 (ip), vehicle: saline 124 % of control | dose: 3.0 mg/kg/injection, schedule: Q04DX003 (ip), vehicle: saline 120 % of control | dose: 3.5 mg/kg/injection, schedule: Q01DX009 (ip), vehicle: saline 122 % of control | dose: 6.25 mg/kg/injection, schedule: Q01DX009 (ip), vehicle: saline 105 % of control | dose: 7.0 mg/kg/injection, schedule: Q01DX009 (ip), vehicle: saline 123 % of control | dose: 12.5 mg/kg/injection, schedule: Q01DX009 (ip), vehicle: saline 116 % of control | dose: 14.0 mg/kg/injection, schedule: Q01DX009 (ip), vehicle: saline 95 % of control and 99 % of control | dose: 14.0 mg/kg/injection, schedule: Q04DX003 (ip), vehicle: saline 108 % of control | dose: 16.0 mg/kg/injection, schedule: Q04DX003 (ip), vehicle: saline 112 % of control | dose: 25.0 mg/kg/injection, schedule: Q04DX003 (ip), vehicle: saline 102 % of control | dose: 32.0 mg/kg/injection, schedule: Q04DX003 (ip), vehicle: saline 111 % of control | dose: 50.0 mg/kg/injection, schedule: Q04DX003 (ip), vehicle: saline 91 % of control

COc1ccc(COC(=O)Oc2ccc(C)cc2)cc1
inactive: dose: 100.0 mg/kg/injection, schedule: Q04DX002 (ip), vehicle: saline 113 % of control | dose: 200.0 mg/kg/injection, schedule: Q04DX002 (ip), vehicle: saline 109 % of control | dose: 400.0 mg/kg/injection, schedule: Q04DX002 (ip), vehicle: saline 98 % of control

Cc1c[nH]c(=O)c[n+]1[O-]
inactive: [1] 97 % of control | [2] 100 % of control | [3] 100 % of control

CC1N=C(N)NC(=O)C1c1ccc(Cl)cc1 (configuration not stated)
inactive: [4] 103 % of control | [5] 100 % of control

C=CCC1(C(=C)C)C(=O)NC(=O)NC1=O
inactive: dose: 75.0 mg/kg/injection, schedule: Q01DX001 (ip), vehicle: carboxymethylcellulose (CMC) 97 % of control | dose: 150.0 mg/kg/injection, schedule: Q01DX001 (ip), vehicle: carboxymethylcellulose (CMC) 93 % of control | dose: 300.0 mg/kg/injection, schedule: Q01DX001 (ip), vehicle: carboxymethylcellulose (CMC) 111 % of control

O=S(=O)(O)c1ccc(Nc2ccccc2)cc1
inactive: [6] 103 % of control and 100 % of control | dose: 100.0 mg/kg/injection, schedule: Q04DX003 (ip), vehicle: Klucel (hydroxypropylcellulose) (HPC) 107 % of control and 103 % of control | [7] 103 % of control and 102 % of control | [8] 96 % of control and 103 % of control | [9] 108 % of control and 102 % of control | dose: 400.0 mg/kg/injection, schedule: Q04DX003 (ip), vehicle: Klucel (hydroxypropylcellulose) (HPC) 102 % of control and 101 % of control

C=CC(CO)N1CC1 (configuration not stated)
inactive: dose: 25.0 mg/kg/injection, schedule: Q01DX001 (ip), vehicle: carboxymethylcellulose (CMC) 101 % of control | dose: 50.0 mg/kg/injection, schedule: Q01DX001 (ip), vehicle: carboxymethylcellulose (CMC) 103 % of control

Nc1nc(=S)c2[nH]c(N=Nc3ccc(S(N)(=O)=O)cc3)nc2[nH]1
inactive: dose: 50.0 mg/kg/injection, schedule: Q01DX009 (ip), vehicle: Klucel (hydroxypropylcellulose) (HPC) 97 % of control | [6] 100 % of control | [7] 100 % of control | [8] 94 % of control
active: dose: 50.0 mg/kg/injection, schedule: Q04DX003 (ip), vehicle: Klucel (hydroxypropylcellulose) (HPC) 151 % of control

O=C(O)C1C2C=CCC1CC2 (configuration not stated)
inactive: dose: 100.0 mg/kg/injection, schedule: Q04DX003 (ip), vehicle: alcohol 100 % of control | dose: 200.0 mg/kg/injection, schedule: Q04DX003 (ip), vehicle: alcohol 103 % of control | dose: 400.0 mg/kg/injection, schedule: Q04DX003 (ip), vehicle: alcohol 100 % of control

N#CC(C#N)=Cc1cccc(OCc2ccccc2)c1
inactive: [6] 100 % of control | [7] 91 % of control | [9] 91 % of control

O=C(/C=C/c1ccco1)c1ccc(Cl)cc1
inactive: dose: 100.0 mg/kg/injection, schedule: Q01DX009 (ip), vehicle: saline sonified 91 % of control | dose: 200.0 mg/kg/injection, schedule: Q01DX009 (ip), vehicle: saline sonified 104 % of control | dose: 400.0 mg/kg/injection, schedule: Q01DX009 (ip), vehicle: saline sonified 94 % of control

Cc1cc(C)c(NC(C)C)c(C)c1N
inactive: dose: 50.0 mg/kg/injection, schedule: Q04DX002 (ip), vehicle: Klucel (hydroxypropylcellulose) (HPC) 92 % of control | [10] 104 % of control | dose: 100.0 mg/kg/injection, schedule: Q04DX002 (ip), vehicle: Klucel (hydroxypropylcellulose) (HPC) 92 % of control | dose: 200.0 mg/kg/injection, schedule: Q01DX001 (ip), vehicle: saline 92 % of control | dose: 200.0 mg/kg/injection, schedule: Q04DX002 (ip), vehicle: Klucel (hydroxypropylcellulose) (HPC) 95 % of control | dose: 400.0 mg/kg/injection, schedule: Q01DX001 (ip), vehicle: saline 93 % of control

CC[n+]1c(C=Nc2ccc(N(C)C)cc2)sc2ccccc21
inactive: dose: 3.13 mg/kg/injection, schedule: Q04DX003 (ip), vehicle: carboxymethylcellulose (CMC) 107 % of control | dose: 6.25 mg/kg/injection, schedule: Q04DX003 (ip), vehicle: carboxymethylcellulose (CMC) 98 % of control | dose: 12.5 mg/kg/injection, schedule: Q04DX002 (ip), vehicle: carboxymethylcellulose (CMC) 104 % of control and 106 % of control | dose: 12.5 mg/kg/injection, schedule: Q04DX003 (ip), vehicle: carboxymethylcellulose (CMC) 96 % of control and 100 % of control | dose: 25.0 mg/kg/injection, schedule: Q04DX002 (ip), vehicle: carboxymethylcellulose (CMC) 109 % of control and 116 % of control

O=C(O)C1CC(c2ccc(Cl)cc2)OC1=O (configuration not stated)
inactive: [1] 101 % of control | [2] 104 % of control | [3] 101 % of control

CCCCC=C1CC(C)CC(C)C1 (configuration not stated)
inactive: dose: 50.0 mg/kg/injection, schedule: Q01DX009 (ip), vehicle: saline with Tween-80 93 % of control | [4] 93 % of control

OCC1OC(n2cnc3cncnc32)C(O)C1O (configuration not stated)
active: dose: 2.8 mg/kg/injection, schedule: Q01DX015 (ip), vehicle: saline 151 % of control
inactive: dose: 1.9 mg/kg/injection, schedule: Q01DX015 (ip), vehicle: saline 108 % of control | dose: 2.5 mg/kg/injection, schedule: Q01DX015 (ip), vehicle: saline 104 % of control | dose: 4.3 mg/kg/injection, schedule: Q01DX015 (ip), vehicle: saline 110 % of control | dose: 5.0 mg/kg/injection, schedule: Q01DX015 (ip), vehicle: saline 106 % of control | dose: 6.5 mg/kg/injection, schedule: Q01DX015 (ip), vehicle: saline 108 % of control | dose: 9.7 mg/kg/injection, schedule: Q01DX015 (ip), vehicle: saline 112 % of control | dose: 10.0 mg/kg/injection, schedule: Q01DX015 (ip), vehicle: saline 118 % of control | dose: 20.0 mg/kg/injection, schedule: Q01DX015 (ip), vehicle: saline 93 % of control | dose: 50.0 mg/kg/injection, schedule: Q01DX001 (ip), vehicle: saline 117 % of control and 122 % of control | [10] 123 % of control

NC(=O)c1cn[nH]c1/N=N/N1CCCC1C(=O)O (configuration not stated)
inactive: dose: 100.0 mg/kg/injection, schedule: Q01DX001 (ip), vehicle: saline with Tween-80 100 % of control | [4] 111 % of control | dose: 100.0 mg/kg/injection, schedule: Q04DX003 (ip), vehicle: saline with Tween-80 104 % of control | dose: 200.0 mg/kg/injection, schedule: Q01DX001 (ip), vehicle: saline with Tween-80 107 % of control | [5] 97 % of control | dose: 200.0 mg/kg/injection, schedule: Q04DX003 (ip), vehicle: saline with Tween-80 104 % of control | dose: 400.0 mg/kg/injection, schedule: Q01DX001 (ip), vehicle: saline with Tween-80 102 % of control | dose: 400.0 mg/kg/injection, schedule: Q01DX009 (ip), vehicle: saline with Tween-80 94 % of control | dose: 400.0 mg/kg/injection, schedule: Q04DX003 (ip), vehicle: saline with Tween-80 106 % of control
